The pKi is the Ki on a negative log10 scale, so that one unit is a factor of ten.

The values that follow come from patent US20260285855A1, “HETEROARYL DERIVATIVES AS DDRS INHIBITORS” (CHIESI FARMACEUTICI S.P.A., priority 2023, published 2026).

pKi: −log10 of the molar value.

One test deals with T1, DDR2 (Homo sapiens, UniProt Q16832).
T1 construct: purchased Life Technologies
T1 sequence (Q16832 22-855): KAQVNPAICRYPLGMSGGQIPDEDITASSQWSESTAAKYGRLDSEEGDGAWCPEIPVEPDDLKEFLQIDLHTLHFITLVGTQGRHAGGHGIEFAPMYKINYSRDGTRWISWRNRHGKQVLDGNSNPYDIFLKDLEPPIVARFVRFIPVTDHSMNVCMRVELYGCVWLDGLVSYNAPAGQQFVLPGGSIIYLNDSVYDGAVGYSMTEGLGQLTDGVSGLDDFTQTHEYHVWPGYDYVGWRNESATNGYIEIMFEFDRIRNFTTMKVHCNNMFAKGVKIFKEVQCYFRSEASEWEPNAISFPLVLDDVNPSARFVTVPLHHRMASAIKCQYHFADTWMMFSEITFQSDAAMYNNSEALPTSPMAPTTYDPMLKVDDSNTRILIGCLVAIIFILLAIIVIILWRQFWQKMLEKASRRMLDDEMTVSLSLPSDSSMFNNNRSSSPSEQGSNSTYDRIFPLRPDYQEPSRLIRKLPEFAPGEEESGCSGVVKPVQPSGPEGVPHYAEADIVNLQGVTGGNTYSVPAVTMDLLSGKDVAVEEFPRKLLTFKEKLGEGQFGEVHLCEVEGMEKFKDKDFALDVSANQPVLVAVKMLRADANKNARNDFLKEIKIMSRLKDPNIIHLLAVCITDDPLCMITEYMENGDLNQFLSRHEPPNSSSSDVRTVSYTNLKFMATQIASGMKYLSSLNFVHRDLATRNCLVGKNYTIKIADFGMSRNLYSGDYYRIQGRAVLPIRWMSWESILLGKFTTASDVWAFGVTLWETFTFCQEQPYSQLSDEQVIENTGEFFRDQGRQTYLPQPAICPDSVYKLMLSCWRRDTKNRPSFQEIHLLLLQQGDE
The test can be described thus: LanthaScreen Europium Kinase Binding assay, DDR2. To be noted: 5 nM DDR2, 10 nM Kinase Tracer 178, 1 h at rt; Ki from IC50 by Cheng-Prusoff; read-out: Ki DDR2. As for the experimental part: (§1) DDR1 and DDR2 binding assays were performed using Life Technologies LanthaScreen™ Europium Kinase Binding assay. […] IC50 values were determined in GraphPad Prism 7.0 software, using 4 parameter model: log (inhibitor) vs. response. IC50 values were converted in Ki using the Cheng-Prusoff equation (Ki-IC50/(1+ [Tracer]/Kd).
In general terms: TR-FRET usually uses a lanthanide donor and a delayed reading to cut background.

The target of another test is T2, DDR1 (Homo sapiens, UniProt Q08345).
T2 construct: purchased Carna Biosciences
T2 sequence (Q08345 19-913): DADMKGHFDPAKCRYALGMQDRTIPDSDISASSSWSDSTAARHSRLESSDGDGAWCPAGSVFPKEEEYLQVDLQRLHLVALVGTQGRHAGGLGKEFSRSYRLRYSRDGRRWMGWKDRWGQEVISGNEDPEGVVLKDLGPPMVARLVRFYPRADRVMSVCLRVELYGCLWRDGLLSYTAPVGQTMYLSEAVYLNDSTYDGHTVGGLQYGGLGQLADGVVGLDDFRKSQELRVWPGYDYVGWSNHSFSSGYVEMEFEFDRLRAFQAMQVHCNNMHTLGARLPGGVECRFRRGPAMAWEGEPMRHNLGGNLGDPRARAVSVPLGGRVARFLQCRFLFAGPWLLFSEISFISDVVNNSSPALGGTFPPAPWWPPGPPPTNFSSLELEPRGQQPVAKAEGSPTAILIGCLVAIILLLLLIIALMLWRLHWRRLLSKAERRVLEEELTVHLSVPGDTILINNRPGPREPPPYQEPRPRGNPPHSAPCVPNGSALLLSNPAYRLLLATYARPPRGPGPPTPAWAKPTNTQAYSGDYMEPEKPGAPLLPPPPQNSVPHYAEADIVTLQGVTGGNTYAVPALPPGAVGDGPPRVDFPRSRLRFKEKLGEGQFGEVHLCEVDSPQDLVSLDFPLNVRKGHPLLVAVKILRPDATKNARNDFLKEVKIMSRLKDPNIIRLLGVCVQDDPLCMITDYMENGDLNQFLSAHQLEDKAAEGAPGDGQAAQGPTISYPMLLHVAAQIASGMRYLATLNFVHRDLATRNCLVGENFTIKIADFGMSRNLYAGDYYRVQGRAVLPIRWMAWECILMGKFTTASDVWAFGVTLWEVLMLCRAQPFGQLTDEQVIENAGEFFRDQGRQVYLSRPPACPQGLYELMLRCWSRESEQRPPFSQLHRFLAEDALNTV
The test can be described thus: LanthaScreen Europium Kinase Binding assay, DDR1. To be noted: 5 nM DDR1, 20 nM Kinase Tracer 178, 1 h at rt; Ki from IC50 by Cheng-Prusoff; read-out: Ki DDR1. How it is done: as §1

With `CN1CCN(c2ccn3ncc(C(=O)N4CC5(CC(NC(=O)Nc6cccc(C(F)(F)F)c6)C5)C4)c3c2)CC1` [Example 84, 1-(2-(5-(4-methylpiperazin-1-yl)pyrazolo[1,5-a]pyridine-3-carbonyl)-2-azaspiro[3.3]heptan-6-yl)-3-(3-(trifluoromethyl)phenyl)urea], the pKi at DDR2 is 7.60 to 8.30; at DDR1 it was over 8.30.
In the case of `Cc1cc(C(F)(F)F)cc(NC(=O)N(C)C2CC3(C2)CN(C(=O)c2cnn4ccn(C)c24)C3)c1F` [Example 193, 3-(2-fluoro-3-methyl-5-(trifluoromethyl)phenyl)-1-methyl-1-(2-(1-methyl-1H-imidazo[1,2-b]pyrazole-7-carbonyl)-2-azaspiro[3.3]heptan-6-yl)urea], the pKi at DDR2 was 7.60 to 8.30; at DDR1, over 8.30.
The like results for `Cc1ccc(-n2nc(C(C)(C)C)cc2NC(=O)NC2CC3(C2)CN(C(=O)c2ncnc4ccsc24)C3)cc1` [Example 82, 1-(3-(tert-butyl)-1-(p-tolyl)-1H-pyrazol-5-yl)-3-(2-(thieno[3,2-d]pyrimidine-4-carbonyl)-2-azaspiro[3.3]heptan-6-yl)urea] were, in that order, 7.60 to 8.30 and over 8.30.
The like results for `O=C(Nc1cccc(C(F)(F)F)c1)NC1CC2(C1)CN(C(=O)c1cnn3ccn(CC4COC4)c13)C2` [Example 166, 1-(2-(1-(oxetan-3-ylmethyl)-1H-imidazo[1,2-b]pyrazole-7-carbonyl)-2-azaspiro[3.3]heptan-6-yl)-3-(3-(trifluoromethyl)phenyl)urea] were, in that order, 7.60 to 8.30 and over 8.30.
For the molecule `Cn1ccn2ncc(C(=O)N3CC4(CC(CC(=O)Nc5cccc(C(F)(F)F)c5)C4)C3)c12` [Example 141, 2-(2-(1-methyl-1H-imidazo[1,2-b]pyrazole-7-carbonyl)-2-azaspiro[3.3]heptan-6-yl)-N-(3-(trifluoromethyl)phenyl)acetamide], the pKi at DDR2 and at DDR1 was over 8.30 in each case.
Regarding `O=C(Nc1cccc(C(F)(F)F)c1)NC1CC2(C1)CN(C(=O)c1ncnc3ccsc13)C2` [Example 79, 1-(2-(thieno[3,2-d]pyrimidine-4-carbonyl)-2-azaspiro[3.3]heptan-6-yl)-3-(3-(trifluoromethyl)phenyl)urea], the pKi at DDR2 and at DDR1 was over 8.30 in each case.
Turning to `O=C(Nc1cc(C(F)(F)F)cnn1)NC1CC2(C1)CN(c1cnc3[nH]ncc3c1)C2` [Example 306, 1-(2-(1H-pyrazolo[3,4-b]pyridin-5-yl)-2-azaspiro[3.3]heptan-6-yl)-3-(5-(trifluoromethyl)pyridazin-3-yl)urea], the negative-log Ki (pKi) was 7.60 to 8.30 at DDR2 and over 8.30 at DDR1.
Taken in the same sequence, the figures for `CSCCn1ccn2ncc(C(=O)N3CC4(CC(NC(=O)Nc5cccc(C(F)(F)F)c5)C4)C3)c12` [Example 194, 1-(2-(1-(2-(methylthio)ethyl)-1H-imidazo[1,2-b]pyrazole-7-carbonyl)-2-azaspiro[3.3]heptan-6-yl)-3-(3-(trifluoromethyl)phenyl)urea] were 7.60 to 8.30 and over 8.30.
The like results for `CN1CCN(c2ccn3ncc(C(=O)N4CC5(CC(NC(=O)Nc6cc(C#N)cc(C(F)(F)F)c6)C5)C4)c3c2)CC1` [Example 87, 1-(3-cyano-5-(trifluoromethyl)phenyl)-3-(2-(5-(4-methylpiperazin-1-yl)pyrazolo[1,5-a]pyridine-3-carbonyl)-2-azaspiro[3.3]heptan-6-yl)urea] were, in that order, 7.60 to 8.30 and over 8.30.
Take `Cn1cc(C(F)(F)F)cc(NC(=O)NC2CC3(C2)CN(C(=O)c2cnn4ccsc24)C3)c1=O` [Example 58, 1-(1-methyl-2-oxo-5-(trifluoromethyl)-1,2-dihydropyridin-3-yl)-3-(2-(pyrazolo[5,1-b]thiazole-7-carbonyl)-2-azaspiro[3.3]heptan-6-yl)urea]: the pKi on DDR2 is 7.60 to 8.30; at DDR1, over 8.30.
Taken in the same sequence, the figures for `COc1ccc(OC(F)(F)F)cc1NC(=O)NC1CC2(C1)CN(C(=O)c1cnn3ccc(N4CCN(C)CC4)cc13)C2` [Example 69, 1-(2-methoxy-5-(trifluoromethoxy)phenyl)-3-(2-(5-(4-methylpiperazin-1-yl)pyrazolo[1,5-a]pyridine-3-carbonyl)-2-azaspiro[3.3]heptan-6-yl)urea] were 7.60 to 8.30 and over 8.30.
The like results for `CN(C)Cc1ccc(NC(=O)NC2CC3(C2)CN(C(=O)c2cnn4ccsc24)C3)cc1C(F)(F)F` [Example 24, 1-(4-((dimethylamino)methyl)-3-(trifluoromethyl)phenyl)-3-(2-(pyrazolo[5,1-b]thiazole-7-carbonyl)-2-azaspiro[3.3]heptan-6-yl)urea] were, in that order, 7.60 to 8.30 and over 8.30.
Taken in the same sequence, the figures for `O=C(Nc1cc(C(F)F)ccn1)NC1CC2(C1)CN(C(=O)c1ncnc3ccsc13)C2` [Example 74, 1-(4-(difluoromethyl)pyridin-2-yl)-3-(2-(thieno[3,2-d]pyrimidine-4-carbonyl)-2-azaspiro[3.3]heptan-6-yl)urea] were over 8.30 and over 8.30.
Consider `Cn1ccn2ncc(C(=O)N3CC4(CC(NC(=O)Nc5cc(C#N)cc(S(F)(F)(F)(F)F)c5)C4)C3)c12` [Example 119, 1-(3-cyano-5-(pentafluoro-16-sulfaneyl)phenyl)-3-(2-(1-methyl-1H-imidazo[1,2-b]pyrazole-7-carbonyl)-2-azaspiro[3.3]heptan-6-yl)urea], for which the pKi at DDR2 and on DDR1 was over 8.30 each time.
Regarding `COc1ccc(OC(F)(F)F)cc1NC(=O)OC1CC2(C1)CN(C(=O)c1cnn3ccn(C)c13)C2` [Example 144, 2-(1-methyl-1H-imidazo[1,2-b]pyrazole-7-carbonyl)-2-azaspiro[3.3]heptan-6-yl(2-methoxy-5-(trifluoromethoxy)phenyl)carba-mate], the pKi on DDR2 is 7.60 to 8.30; at DDR1, over 8.30.
The like results for `Cn1cc(-c2ccc3c(C(=O)N4CC5(CC(NC(=O)Nc6cccc(C(F)(F)F)c6)C5)C4)cnn3c2)cn1` [Example 182, 1-(2-(6-(1-methyl-1H-pyrazol-4-yl)pyrazolo[1,5-a]pyridine-3-carbonyl)-2-azaspiro[3.3]heptan-6-yl)-3-(3-(trifluoromethyl)phenyl)urea] were, in that order, over 8.30 and over 8.30.
Taken in the same sequence, the figures for `O=C(Nc1cccc(C(F)(F)F)c1)NC1CC2(C1)CN(C(=O)c1cnn3ccn(C4COC4)c13)C2` [Example 167, 1-(2-(1-(oxetan-3-yl)-1H-imidazo[1,2-b]pyrazole-7-carbonyl)-2-azaspiro[3.3]heptan-6-yl)-3-(3-(trifluoromethyl)phenyl)urea] were 7.60 to 8.30 and over 8.30.
The like results for `Cn1ccn2ncc(C(=O)N3CC4(CC(OC(=O)Nc5cccc(C(F)(F)F)c5)C4)C3)c12` [Example 143, 2-(1-methyl-1H-imidazo[1,2-b]pyrazole-7-carbonyl)-2-azaspiro[3.3]heptan-6-yl(3-(trifluoromethyl)phenyl)carbamate] were, in that order, over 8.30 and over 8.30.
`COc1ccc(OC(F)(F)F)cc1NC(=O)N(C)C1CC2(C1)CN(C(=O)c1cnn3ccn(C)c13)C2` [Example 52, 3-(2-methoxy-5-(trifluoromethoxy)phenyl)-1-methyl-1-(2-(1-methyl-1H-imidazo[1,2-b]pyrazole-7-carbonyl)-2-azaspiro[3.3]heptan-6-yl)urea]: the pKi on DDR2 is 7.60 to 8.30; on DDR1, over 8.30.
Consider `COc1c(CO)cc(OC(F)(F)F)cc1NC(=O)NC1CC2(C1)CN(C(=O)c1cnn3ccn(C)c13)C2` [Example 78, 1-(3-(hydroxymethyl)-2-methoxy-5-(trifluoromethoxy)phenyl)-3-(2-(1-methyl-1H-imidazo[1,2-b]pyrazole-7-carbonyl)-2-azaspiro[3.3]heptan-6-yl)urea], for which the figures for the pKi on DDR2 and on DDR1 were 7.00 to 7.60 and over 8.30, respectively.
On to `CN(C(=O)Nc1cc(OC(F)(F)F)ccn1)C1CC2(C1)CN(C(=O)c1cnn3ccn(C)c13)C2` [Example 105, 1-methyl-1-(2-(1-methyl-1H-imidazo[1,2-b]pyrazole-7-carbonyl)-2-azaspiro[3.3]heptan-6-yl)-3-(4-(trifluoromethoxy)pyridin-2-yl)urea], for which the figures for the pKi on DDR2 and at DDR1 were 7.60 to 8.30 and over 8.30, respectively.
Taken in the same sequence, the figures for `CCc1ccc(C(F)(F)F)cc1NC(=O)N(C)C1CC2(C1)CN(C(=O)c1cnn3ccn(C)c13)C2` [Example 264, 3-(2-ethyl-5-(trifluoromethyl)phenyl)-1-methyl-1-(2-(1-methyl-1H-imidazo[1,2-b]pyrazole-7-carbonyl)-2-azaspiro[3.3]heptan-6-yl)urea] were 7.60 to 8.30 and over 8.30.
